In PubChem BioAssay (NCI):
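48-hour exposure; five concentrations; linearly interpolated endpoints. TGI marks complete inhibition of growth.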

Experiments:
Assay in all cases: NCI-60 cell line screen, 48 h
CCRF-CEM leukemia = tested on: CCRF-CEM leukemia
SK-MEL-5 melanoma = tested on: SK-MEL-5 melanoma
NCI-H226 lung = tested on: NCI-H226 lung
HOP-62 NSCLC = tested on: HOP-62 NSCLC
M14 melanoma = tested on: M14 melanoma
IGROV1 ovarian = tested on: IGROV1 ovarian
KM12 colon = tested on: KM12 colon
SF-539 CNS = tested on: SF-539 CNS
HL-60(TB) leukemia = tested on: HL-60(TB) leukemia
ACHN renal = tested on: ACHN renal
SNB-75 CNS = tested on: SNB-75 CNS
COLO 205 colon = tested on: COLO 205 colon
OVCAR-8 ovarian = tested on: OVCAR-8 ovarian
OVCAR-5 ovarian = tested on: OVCAR-5 ovarian
M19-MEL melanoma = tested on: M19-MEL melanoma
HCT-15 colon = tested on: HCT-15 colon
NCI-H460 lung = tested on: NCI-H460 lung
OVCAR-4 ovarian = tested on: OVCAR-4 ovarian
DLD-1 colon = tested on: DLD-1 colon
NCI-H522 lung = tested on: NCI-H522 lung
UACC-257 melanoma = tested on: UACC-257 melanoma
U251 CNS = tested on: U251 CNS
SF-295 CNS = tested on: SF-295 CNS
LOX IMVI melanoma = tested on: LOX IMVI melanoma
UO-31 renal = tested on: UO-31 renal
SK-MEL-28 melanoma = tested on: SK-MEL-28 melanoma
SR leukemia = tested on: SR leukemia
CAKI-1 renal = tested on: CAKI-1 renal
786-0 renal = tested on: 786-0 renal
HCC-2998 colon = tested on: HCC-2998 colon
SF-268 CNS = tested on: SF-268 CNS
RPMI-8226 leukemia = tested on: RPMI-8226 leukemia
A549 NSCLC = tested on: A549 NSCLC
NCI-H23 lung = tested on: NCI-H23 lung
SW-620 colon = tested on: SW-620 colon
HOP-18 NSCLC = tested on: HOP-18 NSCLC
DMS 114 small cell lung = tested on: DMS 114 small cell lung
SNB-78 CNS = tested on: SNB-78 CNS
UACC-62 melanoma = tested on: UACC-62 melanoma
HT29 colon = tested on: HT29 colon
MOLT-4 leukemia = tested on: MOLT-4 leukemia
SN12C renal = tested on: SN12C renal
MALME-3M melanoma = tested on: MALME-3M melanoma
DMS 273 small cell lung = tested on: DMS 273 small cell lung
SK-OV-3 ovarian = tested on: SK-OV-3 ovarian
SK-MEL-2 melanoma = tested on: SK-MEL-2 melanoma
HOP-92 NSCLC = tested on: HOP-92 NSCLC
K-562 leukemia = tested on: K-562 leukemia
HCT-116 colon = tested on: HCT-116 colon
RXF 393 renal = tested on: RXF 393 renal
A498 renal = tested on: A498 renal
TK-10 renal = tested on: TK-10 renal
LXFL 529 NSCLC = tested on: LXFL 529 NSCLC
SNB-19 CNS = tested on: SNB-19 CNS
OVCAR-3 ovarian = tested on: OVCAR-3 ovarian
EKVX NSCLC = tested on: EKVX NSCLC
XF 498 CNS = tested on: XF 498 CNS
KM20L2 colon = tested on: KM20L2 colon

Compound `Cc1c2cc[n+](C)cc2c(C)c2c1[nH]c1ccc(OC(C)(C)C)cc12` has a TGI (CCRF-CEM leukemia) greater than 100 µM, a TGI (SK-MEL-5 melanoma) greater than 100 µM and a TGI (NCI-H226 lung) greater than 100 µM. For the same compound, the TGI (HOP-62 NSCLC) was greater than 100 µM, the TGI (M14 melanoma) was greater than 100 µM and the TGI (IGROV1 ovarian) was greater than 100 µM. The TGI (KM12 colon) was greater than 100 µM, the TGI (SF-539 CNS) was greater than 100 µM and the TGI (HL-60(TB) leukemia) was greater than 100 µM. The TGI (ACHN renal) was greater than 100 µM, the TGI (SNB-75 CNS) was greater than 100 µM and the TGI (COLO 205 colon) was greater than 100 µM. For the same compound, the TGI (OVCAR-8 ovarian) was greater than 100 µM, the TGI (OVCAR-5 ovarian) was greater than 100 µM and the TGI (M19-MEL melanoma) was greater than 100 µM. It also gave a TGI (HCT-15 colon) greater than 100 µM, a TGI (NCI-H460 lung) greater than 100 µM and a TGI (OVCAR-4 ovarian) greater than 100 µM. It also gave a TGI (DLD-1 colon) greater than 100 µM, a TGI (NCI-H522 lung) greater than 100 µM and a TGI (UACC-257 melanoma) greater than 100 µM. It also gave a TGI (U251 CNS) greater than 100 µM, a TGI (SF-295 CNS) greater than 100 µM and a TGI (LOX IMVI melanoma) greater than 100 µM. For the same compound, the TGI (UO-31 renal) was greater than 100 µM, the TGI (SK-MEL-28 melanoma) was greater than 100 µM and the TGI (SR leukemia) was greater than 100 µM. It also gave a TGI (CAKI-1 renal) greater than 100 µM, a TGI (786-0 renal) greater than 100 µM and a TGI (HCC-2998 colon) greater than 100 µM. The TGI (SF-268 CNS) was greater than 100 µM, the TGI (RPMI-8226 leukemia) was greater than 100 µM and the TGI (A549 NSCLC) was greater than 100 µM. For the same compound, the TGI (NCI-H23 lung) was greater than 100 µM, the TGI (SW-620 colon) was greater than 100 µM and the TGI (HOP-18 NSCLC) was greater than 100 µM. The TGI (DMS 114 small cell lung) was greater than 100 µM, the TGI (SNB-78 CNS) was greater than 100 µM and the TGI (UACC-62 melanoma) was greater than 100 µM. For the same compound, the TGI (HT29 colon) was greater than 100 µM, the TGI (MOLT-4 leukemia) was greater than 100 µM and the TGI (SN12C renal) was greater than 100 µM. It also gave a TGI (MALME-3M melanoma) greater than 100 µM, a TGI (DMS 273 small cell lung) greater than 100 µM and a TGI (SK-OV-3 ovarian) greater than 100 µM. For the same compound, the TGI (SK-MEL-2 melanoma) was greater than 100 µM, the TGI (HOP-92 NSCLC) was greater than 100 µM and the TGI (K-562 leukemia) was greater than 100 µM. It also gave a TGI (HCT-116 colon) greater than 100 µM, a TGI (RXF 393 renal) greater than 100 µM and a TGI (A498 renal) greater than 100 µM. It also gave a TGI (TK-10 renal) greater than 100 µM and a TGI (LXFL 529 NSCLC) greater than 100 µM.

Compound `c1ccc(C2SCc3nc4ccccc4n32)cc1` (stereo not given) has a TGI (CCRF-CEM leukemia) greater than 100 µM, a TGI (SK-MEL-5 melanoma) of 56.4 µM and a TGI (NCI-H226 lung) greater than 100 µM. It also gave a TGI (HOP-62 NSCLC) greater than 100 µM, a TGI (M14 melanoma) greater than 100 µM and a TGI (IGROV1 ovarian) greater than 100 µM. For the same compound, the TGI (KM12 colon) was greater than 100 µM, the TGI (SF-539 CNS) was greater than 100 µM and the TGI (HL-60(TB) leukemia) was 46.5 µM. For the same compound, the TGI (SNB-19 CNS) was greater than 100 µM, the TGI (OVCAR-3 ovarian) was 54.5 µM and the TGI (ACHN renal) was greater than 100 µM. It also gave a TGI (SNB-75 CNS) of 69.8 µM, a TGI (COLO 205 colon) greater than 100 µM and a TGI (OVCAR-8 ovarian) greater than 100 µM. For the same compound, the TGI (OVCAR-5 ovarian) was greater than 100 µM, the TGI (M19-MEL melanoma) was greater than 100 µM and the TGI (HCT-15 colon) was greater than 100 µM. The TGI (NCI-H460 lung) was greater than 100 µM, the TGI (OVCAR-4 ovarian) was greater than 100 µM and the TGI (DLD-1 colon) was greater than 100 µM. For the same compound, the TGI (EKVX NSCLC) was greater than 100 µM, the TGI (NCI-H522 lung) was 77.8 µM and the TGI (UACC-257 melanoma) was 77.6 µM. The TGI (U251 CNS) was greater than 100 µM, the TGI (SF-295 CNS) was greater than 100 µM and the TGI (LOX IMVI melanoma) was greater than 100 µM. The TGI (UO-31 renal) was greater than 100 µM, the TGI (SK-MEL-28 melanoma) was greater than 100 µM and the TGI (SR leukemia) was greater than 100 µM. For the same compound, the TGI (XF 498 CNS) was 95.4 µM, the TGI (CAKI-1 renal) was greater than 100 µM and the TGI (786-0 renal) was greater than 100 µM. The TGI (HCC-2998 colon) was greater than 100 µM, the TGI (SF-268 CNS) was greater than 100 µM and the TGI (RPMI-8226 leukemia) was 67.3 µM. For the same compound, the TGI (A549 NSCLC) was greater than 100 µM, the TGI (NCI-H23 lung) was greater than 100 µM and the TGI (SW-620 colon) was greater than 100 µM. It also gave a TGI (HOP-18 NSCLC) of 51.7 µM, a TGI (DMS 114 small cell lung) of 63.4 µM and a TGI (SNB-78 CNS) greater than 100 µM. For the same compound, the TGI (UACC-62 melanoma) was greater than 100 µM, the TGI (HT29 colon) was greater than 100 µM and the TGI (MOLT-4 leukemia) was greater than 100 µM. It also gave a TGI (SN12C renal) greater than 100 µM, a TGI (MALME-3M melanoma) greater than 100 µM and a TGI (DMS 273 small cell lung) greater than 100 µM. The TGI (SK-OV-3 ovarian) was greater than 100 µM, the TGI (SK-MEL-2 melanoma) was greater than 100 µM and the TGI (KM20L2 colon) was greater than 100 µM. For the same compound, the TGI (HOP-92 NSCLC) was greater than 100 µM, the TGI (K-562 leukemia) was greater than 100 µM and the TGI (HCT-116 colon) was greater than 100 µM. For the same compound, the TGI (RXF 393 renal) was greater than 100 µM, the TGI (A498 renal) was greater than 100 µM and the TGI (TK-10 renal) was greater than 100 µM.
